SMILES strings stand for the structures. Structures can show the parent of a compound that is named as a salt.

Usually pKa stands for the negative logarithm of the acid dissociation constant.

The first data set deals with dihydropteroic acid biosynthesis (DHPB): hydroxymethyldihydropteridine pyrophosphokinase and dihydropteroate synthetase. The data set is described as follows: coupled assay of dihydropteroic acid biosynthesis (kinase + synthetase), 14C H2pteroate formation. Type of data set: biochemical. As to conditions: coupled assay method; E. coli extract, 0-50% ammonium sulfate fraction; 14C in H2 pteroate from p-aminobenzoate-7-14C; read-out: Concentration in μM required to give 50% inhibition of DHPB. An excerpt:
Potential inhibitors of DHPB synthesis may be tested by investigating the inhibitory effect they impose in the enzymes responsible for the biosynthesis of dihydropteroic acid (DPtA), namely hydroxymethyldihydropteridine pyrophosphokinase (HMPPS), and dihydropteroate synthetase, hereinafter referred to as `synthetase`. In the following reaction equations the compounds are referred to by their abbreviated forms defined hereinbefore in the specification. [formula]
This reaction requires two enzymes since the starting substrates are H2 ptCH2 OH, ATP, and pAB, and the products are H2 pteroate and AMP.
The reactions are followed by determining the amount of ^14 C in H2 pteroate after separation from the substrate, p-aminobenzoate-7-^14 C, by paper chromatography.
On to `COc1cc(OC)c(C(=O)Cc2nn(C)c3nc(N)[nH]c(=O)c3c2=O)c(OC)c1` [7-Amino-3-(2,4,6-trimethoxyphenacyl)-1-methylpyrimido(4,5-c)pyridazine-4,5(1H, 6H)-dione], for which the IC50 is 2.7 µM.

In the case of `COc1ccc(C(=O)Cc2nn(C)c3nc(N)[nH]c(=O)c3c2=O)c(OC)c1` [7-Amino-3-(2,4-dimethoxyphenacyl)-1-methylpyrimido(4,5-c)pyridazine-4,5(1H,6H)-dione], the IC50 came out at 0.14 µM.

Regarding `COc1ccc(OC)c(C(=O)Cc2nn(C)c3nc(N)[nH]c(=O)c3c2=O)c1` [7-Amino-3-(2,5-dimethoxyphenacyl)-1-methylpyrimido(4,5-c)pyridazine-4,5(1H,6H)-dione], the IC50 was determined as 0.06 µM.

As to `COc1cc(C(=O)Cc2nn(C)c3nc(N)[nH]c(=O)c3c2=O)cc(OC)c1OC` [7-Amino-3-(3,4,5-trimethoxyphenacyl)-1-methylpyrimido(4,5-c)pyridazine-4,5(1H, 6H)-dione], the IC50 was determined as 0.03 µM.

For `COc1ccc(C(=O)Cc2nn(C)c3nc(N)[nH]c(=O)c3c2=O)cc1OC` [7-Amino-3-(3,4-dimethoxyphenacyl)-1-methylpyrimido(4,5-c)pyridazine-4,5(1H,6H)-dione], the IC50 came to 0.15 µM.

Regarding `Cn1nc(CC(=O)c2cccc(O)c2)c(=O)c2c(=O)[nH]c(N)nc21` [7-Amino-3-(3-hydroxyphenacyl)-1-methylpyrimido(4,5-c)pyridazine-4,5(1H, 6H)-dione], the IC50 was 0.22 µM.

As to `Cn1nc(Cc2ccccc2[N+](=O)[O-])c(=O)c2c(O)nc(N)nc21` [7-amino-1-methyl-3-(2-nitrobenzyl)-4-oxo-5-hydroxy-1,4-dihydropyrimido(4,5-c)pyridazine], the IC50 worked out at 12 µM.

As for `COc1cc(CC(C#N)c2nn(C)c3nc(N)nc(O)c3c2=O)cc(OC)c1OC` (stereo not drawn) [7-amino-1-methyl-3-(α-cyano-3,4,5-trimethoxyphenethyl)-4-oxo-5-hydroxy-1,4-dihydropyrimido(4,5-c)pyridazine], the IC50 is 11 µM.

Consider `COc1cc(Cc2nn(C)c3nc(N)nc(O)c3c2=O)cc(OC)c1OC` [7-amino-3-(3,4,5-trimethoxybenzyl)-1-methyl-4-oxo-5-hydroxy-1,4-dihydropyrimido(4,5-c)pyridazine], for which the IC50 worked out at 0.77 µM.

Turning to `COc1ccc(Cc2nn(C)c3nc(N)nc(O)c3c2=O)cc1OC` [7-amino-3-(3,4-dimethoxybenzyl)-1-methyl-4-oxo-5-hydroxy-1,4-dihydropyrimido(4,5-c)pyridazine], the IC50 turned out to be 0.86 µM.

Consider `CCc1nn(C)c2nc(N)[nH]c(=O)c2c1=O` [C2 H5], for which the IC50 came out at 33 µM.

With `Cn1nc(-c2ccccc2)c(=O)c2c(O)nc(N)nc21` [C6 H5, 7-amino-1-methyl-3-phenyl-4-oxo-5-hydroxy-1,4-dihydropyrimido(4,5-c)pyridazine], the IC50 is 15 µM.

As to `Cn1nc(Cc2ccccc2)c(=O)c2c(O)nc(N)nc21` [CH2 C6 H5, 7-amino-1-methyl-3-benzyl-4-oxo-5-hydroxy-1,4-dihydropyrimido(4,5-c)pyridazine], the IC50 turned out to be 11 µM.

On to `CCOC(=O)CCc1nn(C)c2nc(N)[nH]c(=O)c2c1=O` [CH2 CH2 CO2 C2 H5], for which the IC50 was 16 µM.

Take `Cn1nc(CCC(=O)O)c(=O)c2c(=O)[nH]c(N)nc21` [CH2 CH2 CO2 H]: the IC50 was found to be 5.5 µM.

Consider `CCOC(=O)Cc1nn(C)c2nc(N)nc(O)c2c1=O` [CH2 CO2 C2 H5, 7-amino-1-methyl-3-(ethoxycarbonylmethyl)-4-oxo-5-hydroxy-1,4-dihydropyrimido(4,5-c)pyridazine], for which the IC50 came to 6.2 µM.

Turning to `Cn1nc(CC(=O)c2ccccc2)c(=O)c2c(=O)[nH]c(N)nc21` [CH2 COC6 H5, 7-Amino-3-phenacyl-1-methylpyrimido(4,5-c)pyridazine-4,5(1H, 6H)-dione], the IC50 turned out to be 0.76 µM.

Regarding `CC(=O)OCc1nn(C)c2nc(N)[nH]c(=O)c2c1=O` [CH2 OCOCH3, 7-Amino-3-acetoxymethyl-1-mehylpyrimido(4,5-c)pyridazine-4,5(1H, 6H)-dione], the IC50 came out at 15 µM.

Consider `Cn1nc(CO)c(=O)c2c(=O)[nH]c(N)nc21` [CH2 OH, 7-Amino-3-hydroxymethyl-1-methylpyrimido(4,5-c)pyridazine-4,5(1H, 6H)-dione Sodium Salt], for which the IC50 turned out to be 12 µM.

As for `Cc1nn(C)c2nc(N)[nH]c(=O)c2c1=O` [CH3, 7-Amino-1,3-dimethylpyrimido(4,5-c)pyridazine-4,5-(1H, 6H)-dione], the IC50 is 16 µM.

Take `CCOC(=O)C(C)c1nn(C)c2nc(N)[nH]c(=O)c2c1=O` (stereo not shown) [CH(CH3)CO2 C2 H5, 7-Amino-3-(1-ethoxycarbonylethyl)-1-methylpyrimido(4,5-c)pyridazine-4,5(1H,6H)-dione]: the IC50 came to 1.6 µM.

For `CC(C(=O)O)c1nn(C)c2nc(N)[nH]c(=O)c2c1=O` (stereo not shown) [CH(CH3)CO2 H, 7-Amino-3-(1-carboxyethyl)-1-methylpyrimido(4,5-c)pyridazine-4,5(1H, 6H)-dione Disodium Salt], the IC50 amounted to 3.7 µM.

Turning to `CCOC(=O)C(OC)c1nn(C)c2nc(N)[nH]c(=O)c2c1=O` (stereo not shown) [CH(OCH3)CO2 C2 H5], the IC50 came out at 17 µM.

For `COC(C(=O)O)c1nn(C)c2nc(N)nc(O)c2c1=O` (stereo not shown) [CH(OCH3)CO2 H, 7-amino-1-methyl-3-((1-methoxy)carboxymethyl)-4-oxo-5-hydroxy-1,4-dihydropyrimido(4,5-c)pyridazine], the IC50 came to 2.8 µM.

For the compound `Cn1nc(C(=O)O)c(=O)c2c(=O)[nH]c(N)nc21` [CO2 H (disodium salt), 7-Amino-3-carboxy-1-methylpyrimido(4,5-c)pyridazine-4,5(1H, 6H)-dione Disodium Salt], the IC50 is 21 µM.

As for `Cn1nc(-c2c[nH]c3ccccc23)c(=O)c2c(=O)[nH]c(N)nc21` [Example 3-Indolyl], the IC50 is 30 µM.

In the case of `CC(C)Cc1nn(C)c2nc(N)[nH]c(=O)c2c1=O` [iso-C4 H9], the IC50 amounted to 20 µM.

For `CCCc1nn(C)c2nc(N)[nH]c(=O)c2c1=O` [n-C3 H7], the IC50 amounted to 45 µM.

On to `CCCCCCc1nn(C)c2nc(N)[nH]c(=O)c2c1=O` [n-C6 H13], for which the IC50 was found to be 50 µM.

Test system in a further data set: not listed separately
The data set is described as follows: pKa values. It counts as physicochemical. As to conditions: read-out: pKa values (first value).
As to `Cc1nn(C)c2nc(N)[nH]c(=O)c2c1=O` [CH3, 7-Amino-1,3-dimethylpyrimido(4,5-c)pyridazine-4,5-(1H, 6H)-dione], the pKa came to 4.1 ± 0.1.

Staying with this data set, now noted: read-out: pKa values (second value).
Regarding `Cc1nn(C)c2nc(N)[nH]c(=O)c2c1=O` [CH3, 7-Amino-1,3-dimethylpyrimido(4,5-c)pyridazine-4,5-(1H, 6H)-dione], the pKa came out at 8.6 ± 0.1.
